Columns and labels:
venous malformation = test: Electrosclerotherapy case, Example 2 (patient, photographs, 3 years follow-up)
[1] = system: symptomatic venous malformation of the left thigh; test: Electrosclerotherapy case, Example 1 (patient, MRI follow-up); type: in vivo, human; conditions: 1.5 mg bleomycin
Protocol: FIGS. 1A and 1C show magnetic resonance of a symptomatic venous malformation of the left thigh in a patient previously treated with surgery and sclerotherapy;
FIGS. 1B and 1D show magnetic resonance of the symptomatic venous malformation of FIG. 1A three months after one electrosclerotherapy session.
A patient with a symptomatic venous malformation of the left thigh, causing swelling, pain, and partial immobility, recurring after surgery and sclerotherapy with Aethoxysklerol was treated with electrosclerotherapy using custom geometry electrodes and 1.5 mg bleomycin. […] Volume of the lesion before treatment: 26.79 cm^3; volume of the lesion after treatment: 0.00 cm^3.

[2] = system: venous malformations that did not respond to previous invasive therapies; conditions: 17 patients, cited from earlier work

Molecule | outcome of sclerotherapy (venous malformation; 7 sessions of ethanol sclerotherapy, without electric pulses) | magnetic resonance imaging outcome of the malformation ([1]; custom geometry electrodes, 3 months after one session of electrosclerotherapy) | adverse events ([1]; one electrosclerotherapy session) | volume of the lesion after treatment ([1]; one electrosclerotherapy session, volume before treatment 26.79 cm^3) | clinical improvement ([2]; after an average of 3.7 months and 1.12 sessions per patient) | decrease in lesion volume on magnetic resonance imaging (average) ([2]; bleomycin in combination with reversible electroporation, average 3.7 months and 1.12 sessions per patient) | functionality of nerves (venous malformation; 2 sessions of electrosclerotherapy, finger electrode, 2 mg of Bleomycin per session, 3 years follow-up)
CCO [ethanol] | unsuccessfully treated |  |  |  |  |  | 
bleomycin |  | complete resolution of the malformation | No documented adverse events | 0.00 cm^3 | clinical improvement in all patients | 86% | Functionality of nerves is preserved

Reference: patent US20250152936A1, “METHOD FOR THE TREATMENT OF VASCULAR ANOMALIES BY ADMINISTERING ONE OR MORE SCLEROSING AGENTS AND APPLYING A SERIES OF ELECTRIC PULSES” (IGEA S.P.A., priority 2023, published 2025)
